Assay [1] addresses T1, Human Factor XIIa (hFXIIa) (Homo sapiens, UniProt P00748).
T1 construct: purchased Enzyme Research Laboratories
T1 sequence (P00748 373-615 limits assumed): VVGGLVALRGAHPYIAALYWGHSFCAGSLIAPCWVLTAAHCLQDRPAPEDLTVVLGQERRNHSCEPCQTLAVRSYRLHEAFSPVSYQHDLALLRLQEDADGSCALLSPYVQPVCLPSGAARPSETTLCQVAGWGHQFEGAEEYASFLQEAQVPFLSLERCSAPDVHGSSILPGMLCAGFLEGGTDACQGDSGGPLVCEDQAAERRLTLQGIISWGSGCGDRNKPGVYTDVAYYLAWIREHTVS
T1 sequence (P00748 20-372 partner limits assumed): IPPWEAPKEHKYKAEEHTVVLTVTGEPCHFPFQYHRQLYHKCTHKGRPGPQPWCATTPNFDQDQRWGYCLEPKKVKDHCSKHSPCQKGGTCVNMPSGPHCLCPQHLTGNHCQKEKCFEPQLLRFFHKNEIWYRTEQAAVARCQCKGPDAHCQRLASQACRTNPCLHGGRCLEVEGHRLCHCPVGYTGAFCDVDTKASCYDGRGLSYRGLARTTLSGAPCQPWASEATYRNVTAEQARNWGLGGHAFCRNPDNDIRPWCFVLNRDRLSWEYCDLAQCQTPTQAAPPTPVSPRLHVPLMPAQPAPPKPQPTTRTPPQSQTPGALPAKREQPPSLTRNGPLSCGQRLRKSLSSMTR
The assay is described as follows: Determination of Human Factor XIIa (hFXIIa) inhibition, fluorogenic substrate IC50 assay. The assay is classed as biochemical. The settings on record: fluorogenic substrate H-DPro-Phe-Arg-AFC at Km, 25° C., read-out: Human FXIIa IC50. The procedure: Determination of Human Factor XIIa (hFXIIa) inhibition
The Km for the cleavage of the substrate by hFXIIa was determined by standard transformation of the Michaelis-Menten equation, with subsequent inhibition assays performed at substrate Km concentration.

The target in assay [2] is FXa (Homo sapiens, UniProt P00742). The assay is described as follows: Related protease inhibition: FXa, fluorogenic substrate. It is filed as biochemical. The settings on record: fluorogenic substrate at Km, 25° C.; H1-H3 = % activity at 40 μM. The procedure: Human serine protease enzyme Plasma Kallikrein, KLK1, FXa, Plasmin, Thrombin and Trypsin were assayed for enzymatic activity using an appropriate fluorogenic substrate at Km concentration, FXIa at fixed substrate concentration of 100 μM and various concentrations of the test compound.
Chain of FXa (P00742 235-488 limits assumed): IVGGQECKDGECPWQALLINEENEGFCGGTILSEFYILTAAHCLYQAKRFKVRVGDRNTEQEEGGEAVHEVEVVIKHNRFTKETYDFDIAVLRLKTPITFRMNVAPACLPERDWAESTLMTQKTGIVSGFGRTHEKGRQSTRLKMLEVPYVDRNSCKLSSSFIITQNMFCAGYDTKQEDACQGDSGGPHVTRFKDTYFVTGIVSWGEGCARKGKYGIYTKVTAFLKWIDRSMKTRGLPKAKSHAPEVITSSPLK
Chain of FXa (P00742 41-179 partner limits assumed): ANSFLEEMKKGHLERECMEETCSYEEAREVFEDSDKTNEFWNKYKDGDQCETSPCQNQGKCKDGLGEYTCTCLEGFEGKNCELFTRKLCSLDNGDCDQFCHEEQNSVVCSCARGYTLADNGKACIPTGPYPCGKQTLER

A word on the IC50: it is the concentration that inhibits the measured activity by half. For `O=C(Cn1nc(-c2cccc(Cl)c2)c2c1CCN(c1ccc3c(c1)CN(CCO)CC3)C2=O)NCC1CC1` [Example 4002, 2-[3-(3-Chlorophenyl)-5-[2-(2-hydroxyethyl)-3,4-dihydro-1H-isoquinolin-7-yl]-4-oxo-6,7-dihydropyrazolo[4,3-c]pyridin-1-yl]-N-(cyclopropylmethyl) acetamide], the IC50 in assay [1] was 1 to 3 µM; in assay [2], more than 40 µM.
As for `O=C(NCC1CCOC1)c1nn(-c2cccc(Cl)c2)c2c1CCN(c1ccc3c(c1)C(=O)N(CCO)CC3)C2=O` (centres unmarked) [Example 1260, 1-(3-chlorophenyl)-6-(2-(2-hydroxyethyl)-1-oxo-1,2,3,4-tetrahydroisoquinolin-7-yl)-7-oxo-N-((tetrahydrofuran-3-yl)methyl)-4,5,6,7-tetrahydro-1H-pyrazolo[3,4-c]pyridine-3-carboxamide], the IC50 is 0.3 to 1 µM in assay [1] and more than 40 µM in assay [2].
The matching figures for `O=C(NCc1cc(C2CC2)n[nH]1)c1nn(-c2cccc(Cl)c2)c2c1CCN(c1ccc3c(c1)CN(CCO)CC3)C2=O` [Example 1127, 1-(3-chlorophenyl)-N-((3-cyclopropyl-1H-pyrazol-5-yl)methyl)-6-(2-(2-hydroxyethyl)-1,2,3,4-tetrahydroisoquinolin-7-yl)-7-oxo-4,5,6,7-tetrahydro-1H-pyrazolo[3,4-c]pyridine-3-carboxamide]: 0.01 to 0.1 µM and 10 to 40 µM.
With `Cc1nc2c(C(=O)NCC3CC3)nn(-c3cccc(Cl)c3)c2c(=O)n1-c1ccc2c(c1)CN(C)CC2` [Example 3004, 1-(3-chlorophenyl)-N-(cyclopropylmethyl)-5-methyl-6-(2-methyl-1,2,3,4-tetrahydroisoquinolin-7-yl)-7-oxo-6,7-dihydro-1H-pyrazolo[4,3-d]pyrimidine-3-carboxamide], the 50% inhibitory concentration (IC50) fell in the range of 0.1 to 0.3 µM in assay [1] and 3 to 10 µM in assay [2].
For `O=C(NCc1ccnnc1)c1nn(-c2cccc(Cl)c2)c2c1CCN(c1ccc3c(c1)CN(CCO)CC3)C2=O` [Example 1218, 1-(3-chlorophenyl)-6-(2-(2-hydroxyethyl)-1,2,3,4-tetrahydroisoquinolin-7-yl)-7-oxo-N-(pyridazin-4-ylmethyl)-4,5,6,7-tetrahydro-1H-pyrazolo[3,4-c]pyridine-3-carboxamide], the IC50 in assay [1] is 0.1 to 0.3 µM; in assay [2], more than 40 µM.
As for `CCNC(=O)c1nn(-c2cccc(Cl)c2)c2c1CCN(c1cccc(N3CCN(C)C3=O)c1)C2=O` [Example 1364, 1-(3-chlorophenyl)-N-ethyl-6-(3-(3-methyl-2-oxoimidazolidin-1-yl)phenyl)-7-oxo-4,5,6,7-tetrahydro-1H-pyrazolo[3,4-c]pyridine-3-carboxamide], the values for the IC50 in assay [1] and in assay [2] were 1 to 3 µM and more than 40 µM, respectively.
For `Cc1cc(CNC(=O)c2nn(-c3cccc(Cl)c3)c3c2CCN(c2ccc4c(c2)C(=O)N(CCO)[C@H](C)CO4)C3=O)nn1C` [Example 1329, (R)-1-(3-chlorophenyl)-N-((1,5-dimethyl-1H-pyrazol-3-yl)methyl)-6-(4-(2-hydroxyethyl)-3-methyl-5-oxo-2,3,4,5-tetrahydrobenzo[f][1,4]oxazepin-7-yl)-7-oxo-4,5,6,7-tetrahydro-1H-pyrazolo[3,4-c]pyridine-3-carboxamide], in that order: 0.3 to 1 µM and more than 4 µM.
For `COCc1cc(CNC(=O)c2nn(-c3cccc(Cl)c3)c3c2CCN(c2ccc4c(c2)CN(CCO)CC4)C3=O)[nH]n1` [Example 1156, 1-(3-chlorophenyl)-6-(2-(2-hydroxyethyl)-1,2,3,4-tetrahydroisoquinolin-7-yl)-N-((3-(methoxymethyl)-1H-pyrazol-5-yl)methyl)-7-oxo-4,5,6,7-tetrahydro-1H-pyrazolo[3,4-c]pyridine-3-carboxamide], in that order: 0.1 to 0.3 µM and 10 to 40 µM.
Regarding `O=C(NCc1cocn1)c1nn(-c2cccc(Cl)c2)c2c1CCN(c1ccc3c(c1)CN(CCO)CC3)C2=O` [Example 1223, 1-(3-chlorophenyl)-6-(2-(2-hydroxyethyl)-1,2,3,4-tetrahydroisoquinolin-7-yl)-N-(oxazol-4-ylmethyl)-7-oxo-4,5,6,7-tetrahydro-1H-pyrazolo[3,4-c]pyridine-3-carboxamide], the IC50 in assay [1] was in the range of 0.1 to 0.3 µM; in assay [2], 10 to 40 µM.
For `COc1ccc(CNC(=O)c2nn(-c3cccc(Cl)c3)c3c2CCN(c2ccc4c(c2)CN(CCO)CC4)C3=O)cn1` [Example 1138, 1-(3-chlorophenyl)-6-(2-(2-hydroxyethyl)-1,2,3,4-tetrahydroisoquinolin-7-yl)-N-((6-methoxypyridin-3-yl)methyl)-7-oxo-4,5,6,7-tetrahydro-1H-pyrazolo[3,4-c]pyridine-3-carboxamide], in that order: 0.01 to 0.1 µM and 3 to 10 µM.
For `CCN1CCc2ccc(N3CCc4c(C(=O)NCc5cnccc5C)nn(-c5cccc(Cl)c5)c4C3=O)cc2C1` [Example 1140, 1-(3-chlorophenyl)-6-(2-ethyl-1,2,3,4-tetrahydroisoquinolin-7-yl)-N-((4-methylpyridin-3-yl)methyl)-7-oxo-4,5,6,7-tetrahydro-1H-pyrazolo[3,4-c]pyridine-3-carboxamide], the results for the IC50 in assay [1] and in assay [2] were 0.01 to 0.1 µM and 3 to 10 µM, respectively.
Turning to `Cc1cc(CNC(=O)c2nn(-c3cccc(Cl)c3)c3c(=O)n(-c4ccc5c(c4)C(=O)N(C)CC5)c(C)nc23)nn1C` [Example 3021, 1-(3-chlorophenyl)-N-((1,5-dimethyl-1H-pyrazol-3-yl)methyl)-5-methyl-6-(2-methyl-1-oxo-1,2,3,4-tetrahydroisoquinolin-7-yl)-7-oxo-6,7-dihydro-1H-pyrazolo[4,3-d]pyrimidine-3-carboxamide], the values for the IC50 in assay [1] and in assay [2] were 0.1 to 0.3 µM and 10 to 40 µM, respectively.
The matching figures for `CCNC(=O)c1nn(-c2cccc(Cl)c2)c2c1CCN(c1cccc(N3C(=O)CC4CC43)c1)C2=O` (centres unmarked) [Example 1367, 1-(3-Chlorophenyl)-N-ethyl-7-oxo-6-(3-(3-oxo-2-azabicyclo[3.1.0]hexan-2-yl)phenyl)-4,5,6,7-tetrahydro-1H-pyrazolo[3,4-c]pyridine-3-carboxamide]: 0.3 to 1 µM and 10 to 40 µM.
The matching figures for `O=C(NCc1ccco1)c1nn(-c2cccc(Cl)c2)c2c1CCN(c1ccc3c(c1)CN(CCO)CC3)C2=O` [Example 1109, 1-(3-chlorophenyl)-N-(furan-2-ylmethyl)-6-(2-(2-hydroxyethyl)-1,2,3,4-tetrahydroisoquinolin-7-yl)-7-oxo-4,5,6,7-tetrahydro-1H-pyrazolo[3,4-c]pyridine-3-carboxamide]: 0.01 to 0.1 µM and more than 40 µM.
`CN1CCc2ccc(N3CCc4c(C(=O)NS(C)(=O)=O)nn(-c5cccc(Cl)c5)c4C3=O)cc2C1=O` [Example 1345, 1-(3-chlorophenyl)-6-(2-methyl-1-oxo-1,2,3,4-tetrahydroisoquinolin-7-yl)-N-(methylsulfonyl)-7-oxo-4,5,6,7-tetrahydro-1H-pyrazolo[3,4-c]pyridine-3-carboxamide]: the IC50 was 3 to 10 µM in assay [1] and more than 40 µM in assay [2].
Turning to `C[C@@H](NC(=O)c1nn(-c2cccc(Cl)c2)c2c1CCN(c1ccc3c(c1)CN(CCO)CC3)C2=O)c1cccnc1` [Example 1145, (R)-1-(3-chlorophenyl)-6-(2-(2-hydroxyethyl)-1,2,3,4-tetrahydroisoquinolin-7-yl)-7-oxo-N-(1-(pyridin-3-yl)ethyl)-4,5,6,7-tetrahydro-1H-pyrazolo[3,4-c]pyridine-3-carboxamide], the IC50 in assay [1] lay within 0.1 to 0.3 µM; in assay [2], 10 to 40 µM.
The matching figures for `CN1CCCc2ccc(N3CCc4c(C(=O)NCC5CC5)nn(-c5cccc(Cl)c5)c4C3=O)cc2C1=O` [Example 1239, 1-(3-chlorophenyl)-N-(cyclopropylmethyl)-6-(2-methyl-1-oxo-2,3,4,5-tetrahydro-1H-benzo[c]azepin-8-yl)-7-oxo-4,5,6,7-tetrahydro-1H-pyrazolo[3,4-c]pyridine-3-carboxamide]: 0.1 to 0.3 µM and 10 to 40 µM.
With `CCNC(=O)c1nn(-c2cccc(Cl)c2)c2c1CCN(c1ccc3c(c1)C(=O)N(CCO)[C@H](C)CO3)C2=O` [Example 1392, (R)-1-(3-chlorophenyl)-N-ethyl-6-(4-(2-hydroxyethyl)-3-methyl-5-oxo-2,3,4,5-tetrahydrobenzo[f][1,4]oxazepin-7-yl)-7-oxo-4,5,6,7-tetrahydro-1H-pyrazolo[3,4-c]pyridine-3-carboxamide], the IC50 in assay [1] was 3 to 10 µM; in assay [2], more than 40 µM.
The matching figures for `O=C(NCC1CC1)c1nn(-c2cccc(Cl)c2)c2c1CCN(c1ccc3c(c1)C(=O)N(CCF)CC3)C2=O` [Example 1253, 1-(3-chlorophenyl)-N-(cyclopropylmethyl)-6-(2-(2-fluoroethyl)-1-oxo-1,2,3,4-tetrahydroisoquinolin-7-yl)-7-oxo-4,5,6,7-tetrahydro-1H-pyrazolo[3,4-c]pyridine-3-carboxamide]: 0.1 to 0.3 µM and more than 40 µM.

The values are drawn from patent US20260132132A1, “3A,4,5,6-TETRAHYDRO-1 H-PYRAZOLO[3,4-C]PYRIDIN-7(7AH)-ONE DERIVATIVES AS FACTOR XIIA INHIBITORS” (KALVISTA PHARMACEUTICALS LIMITED, priority 2022, published 2026).
